We go through 33 compounds from US11382918B2, “Methods for treating Huntington's Disease” (PTC Therapeutics, Inc., priority 2017, dated 2022).

Structures are written as SMILES.

The IC50 is the concentration that inhibits the measured activity by half. A higher IC50 goes with weaker potency in that assay.

For this test, the system named is Endogenous Huntingtin Protein (HTT). Nature of the test: Endogenous Huntingtin Protein Assay (ELISA-based MSD electrochemiluminescence). Type of test: cell-based. The settings on record: Table 1. On the procedure:
Compounds of Formula (I) were tested using the Meso Scale Discovery (MSD) Assay provided in International Application No. PCT/US2016/066042, filed on Dec. 11, 2016 and claiming priority to U.S. Provisional Application 62/265,652 filed on Dec. 10, 2015, published as International Publication No. WO 2017/100726 on Jun. 15, 2017, the entire contents of which are incorporated herein by reference.
The Endogenous Huntingtin Protein assay used in Example 1 was developed using the ELISA-based MSD electrochemiluminescence assay platform.
Endogenous Huntingtin Protein Assay
Meso Scale Discovery (MSD) 96-well or 384-well plates were coated overnight at 4° C. with MW1 (expanded polyglutamine) or MAB2166 monoclonal antibody (for capture) at a concentration of 1 μg/mL in PBS (30 μL per well). Plates were then washed three times with 300 µL wash buffer (0.05% Tween-20 in PBS) and blocked (100 μL blocking buffer; 5% BSA in PBS) for 4-5 hours at room temperature with rotational shaking and then washed three times with wash buffer.
Samples (25 μL) were transferred to the antibody-coated MSD plate and incubated overnight at 4° C. After removal of the lysates, the plate was washed three times with wash buffer, and 25 μL of #5656S (Cell signaling; rabbit monoclonal) secondary antibody (diluted to 0.25 μg/mL in 0.05% Tween-20 in blocking buffer) was added to each well and incubated with shaking for 1 Hour at room temperature. Following incubation with the secondary antibody, the wells were rinsed with wash buffer after which 25 μL of goat anti-rabbit SULFO TAG secondary detection antibody (required aspect of the MSD system) (diluted to 0.25 μg/mL in 0.05% Tween-20 in blocking buffer) was added to each well and incubated with shaking for 1 hour at room temperature. After rinsing three times with wash buffer, 150 μL of read buffer T with surfactant (MSD) were added to each empty well, and the plate was imaged on a SI 6000 imager (MSD) according to manufacturers' instructions provided for 96- or 384-well plates.
Compound `Cc1ccc2nc(-c3cc(=O)n4cc(N5CCNCC5)ccc4n3)cn2c1` [compound 29, 2-(6-methylimidazo[1,2-a]pyridin-2-yl)-7-(piperazin-1-yl)-4H-pyrido[1,2-a]pyrimidin-4-one] came in with a half-maximal inhibitory concentration (IC50) of 3000 to 33000 nM.

Compound `COc1ccc(-c2cc(=O)n3cc(N4CCNCC4)ccc3n2)cc1F` [compound 72, 2-(3-fluoro-4-methoxyphenyl)-7-(piperazin-1-yl)-4H-pyrido[1,2-a]pyrimidin-4-one] gave a half-maximal inhibitory concentration (IC50) of 3000 to 33000 nM.

Compound `Cc1cn2cc(-c3cc(=O)n4cc(N5CCNCC5)ccc4n3)nc2cn1` [compound 74, 2-(6-methylimidazo[1,2-a]pyrazin-2-yl)-7-(piperazin-1-yl)-4H-pyrido[1,2-a]pyrimidin-4-one] displayed an IC50 of 1000 to 3000 nM.

Turning to `Cc1cn2cc(-c3cc(=O)n4cc(N5CCN[C@@H](C)C5)ccc4n3)nc2cn1` [compound 75, 2-(6-methylimidazo[1,2-a]pyrazin-2-yl)-7-[(3S)-3-methylpiperazin-1-yl]-4H-pyrido[1,2-a]pyrimidin-4-one], the IC50 was 1000 to 3000 nM.

With `COc1ccc(-c2cc(=O)n3cc(N4CCNCC4)ccc3n2)cn1` [compound 88, 2-(6-methoxypyridin-3-yl)-7-(piperazin-1-yl)-4H-pyrido[1,2-a]pyrimidin-4-one], the 50% inhibitory concentration (IC50) lay in the range of 3000 to 33000 nM.

Compound `O=c1cc(-c2cncc(Cl)c2)nc2ccc(N3CCNCC3)cn12` [compound 94, 2-(5-chloropyridin-3-yl)-7-(piperazin-1-yl)-4H-pyrido[1,2-a]pyrimidin-4-one] yielded an IC50 of 3000 to 33000 nM.

Regarding `COc1ncc(-c2cc(=O)n3cc(N4CCNCC4)ccc3n2)cc1Cl` [compound 96, 2-(5-chloro-6-methoxypyridin-3-yl)-7-(piperazin-1-yl)-4H-pyrido[1,2-a]pyrimidin-4-one], the IC50 is 3000 to 33000 nM.

The compound `O=c1cc(-c2ccn3ccnc3c2)nc2ccc(N3CCNCC3)cn12` [compound 107, 2-(imidazo[1,2-a]pyridin-7-yl)-7-(piperazin-1-yl)-4H-pyrido[1,2-a]pyrimidin-4-one] showed an IC50 of 3000 to 33000 nM.

`O=c1cc(-c2ccc3nccn3c2)nc2ccc(N3CCNCC3)cn12` [compound 108, 2-(imidazo[1,2-a]pyridin-6-yl)-7-(piperazin-1-yl)-4H-pyrido[1,2-a]pyrimidin-4-one] came in with an IC50 of 3000 to 33000 nM.

`Cc1cn2cc(-c3cc(=O)n4cc(N5CCNCC5)ccc4n3)ccc2n1` [compound 109, 2-(2-methylimidazo[1,2-a]pyridin-6-yl)-7-(piperazin-1-yl)-4H-pyrido[1,2-a]pyrimidin-4-one]: the IC50 lay within 1000 to 3000 nM.

For the compound `Cc1cn2cc(-c3cc(=O)n4cc(N5CCN(C)CC5)ccc4n3)ccc2n1` [compound 114, 2-(2-methylimidazo[1,2-a]pyridin-6-yl)-7-(4-methylpiperazin-1-yl)-4H-pyrido[1,2-a]pyrimidin-4-one], the IC50 was 3000 to 33000 nM.

`Cc1cn2cc(-c3cc(=O)n4cc(N5CCNCC5)ccc4n3)nc2c(C)n1` [compound 118, 2-(6,8-dimethylimidazo[1,2-a]pyrazin-2-yl)-7-(piperazin-1-yl)-4H-pyrido[1,2-a]pyrimidin-4-one] yielded an IC50 of 3000 to 33000 nM.

Turning to `Cc1cn2nc(-c3cc(=O)n4cc(N5CCNCC5)ccc4n3)cc2c(C)n1` [compound 120, 2-(4,6-dimethylpyrazolo[1,5-a]pyrazin-2-yl)-7-(piperazin-1-yl)-4H-pyrido[1,2-a]pyrimidin-4-one], the IC50 was in the range of 1000 to 3000 nM.

For the compound `Cc1cn2nc(-c3cc(=O)n4cc(N5CCN[C@@H](C)C5)ccc4n3)cc2c(C)n1` [compound 121, 2-(4,6-dimethylpyrazolo[1,5-a]pyrazin-2-yl)-7-[(3S)-3-methylpiperazin-1-yl]-4H-pyrido[1,2-a]pyrimidin-4-one], the half-inhibitory concentration (IC50) lay within 3000 to 33000 nM.

`O=c1cc(-c2ccc3nc(C(F)(F)F)cn3c2)nc2ccc(N3CCNCC3)cn12` [compound 123, 7-(piperazin-1-yl)-2-[2-(trifluoromethyl)imidazo[1,2-a]pyridin-6-yl]-4H-pyrido[1,2-a]pyrimidin-4-one] gave a 50% inhibitory concentration (IC50) of 3000 to 33000 nM.

As for `CCc1cn2cc(-c3cc(=O)n4cc(N5CCNCC5)ccc4n3)ccc2n1` [compound 124, 2-(2-ethylimidazo[1,2-a]pyridin-6-yl)-7-(piperazin-1-yl)-4H-pyrido[1,2-a]pyrimidin-4-one], the concentration for half-maximal inhibition (IC50) lay within 3000 to 33000 nM.

In the case of `Cc1nc2ccc(-c3cc(=O)n4cc(N5CCNCC5)ccc4n3)cn2c1C` [compound 125, 2-(2,3-dimethylimidazo[1,2-a]pyridin-6-yl)-7-(piperazin-1-yl)-4H-pyrido[1,2-a]pyrimidin-4-one], the IC50 lay in the range of 3000 to 33000 nM.

Regarding `O=c1cc(-c2cnc3[nH]ccc3c2)nc2ccc(N3CCNCC3)cn12` [compound 128, 7-(piperazin-1-yl)-2-(1H-pyrrolo[2,3-b]pyridin-5-yl)-4H-pyrido[1,2-a]pyrimidin-4-one], the half-maximal inhibitory concentration (IC50) is 3000 to 33000 nM.

The compound `Cn1ccc2cc(-c3cc(=O)n4cc(N5CCNCC5)ccc4n3)cnc21` [compound 129, 2-(1-methyl-1H-pyrrolo[2,3-b]pyridin-5-yl)-7-(piperazin-1-yl)-4H-pyrido[1,2-a]pyrimidin-4-one] registered a 50% inhibitory concentration (IC50) of 3000 to 33000 nM.

`Cc1cn2nc(-c3cc(=O)n4cc(N5C[C@@H](C)N[C@@H](C)C5)ccc4n3)cc2c(C)n1` [compound 131, 7-[(3R,5S)-3,5-dimethylpiperazin-1-yl]-2-(4,6-dimethylpyrazolo[1,5-a]pyrazin-2-yl)-4H-pyrido[1,2-a]pyrimidin-4-one] registered a half-inhibitory concentration (IC50) of 3000 to 33000 nM.

As for `Cc1nc2ccc(-c3cc(=O)n4cc(N5CCNCC5)ccc4n3)cc2o1` [compound 133, 2-(2-methyl-1,3-benzoxazol-6-yl)-7-(piperazin-1-yl)-4H-pyrido[1,2-a]pyrimidin-4-one], the IC50 fell in the range of 500 to 1000 nM.

The compound `Cc1nc2cc(-c3cc(=O)n4cc(N5CCN[C@@H](C)C5)ccc4n3)ccc2s1` [compound 135, 2-(2-methyl-1,3-benzothiazol-5-yl)-7-[(3S)-3-methylpiperazin-1-yl]-4H-pyrido[1,2-a]pyrimidin-4-one] registered a concentration for half-maximal inhibition (IC50) of 1000 to 3000 nM.

Compound `Cc1nc2cc(-c3cc(=O)n4cc(N5CCNCC5)ccc4n3)ccc2s1` [compound 136, 2-(2-methyl-1,3-benzothiazol-5-yl)-7-(piperazin-1-yl)-4H-pyrido[1,2-a]pyrimidin-4-one] returned an IC50 of 3000 to 33000 nM.

The compound `Cn1cc2cc(-c3cc(=O)n4cc(N5CCNCC5)ccc4n3)ccc2n1` [compound 137, 2-(2-methyl-2H-indazol-5-yl)-7-(piperazin-1-yl)-4H-pyrido[1,2-a]pyrimidin-4-one] displayed an IC50 of 1000 to 3000 nM.

In turn, `C[C@H]1CN(c2ccc3nc(-c4ccc5nn(C)cc5c4)cc(=O)n3c2)CCN1` [compound 138, 2-(2-methyl-2H-indazol-5-yl)-7-[(3S)-3-methylpiperazin-1-yl]-4H-pyrido[1,2-a]pyrimidin-4-one] returned an IC50 of 1000 to 3000 nM.

Compound `Cc1cn2cc(-c3cc(=O)n4cc(N5CCNCC5)ccc4n3)cc(C)c2n1` [compound 141, 2-(2,8-dimethylimidazo[1,2-a]pyridin-6-yl)-7-(piperazin-1-yl)-4H-pyrido[1,2-a]pyrimidin-4-one] displayed a concentration for half-maximal inhibition (IC50) of 1000 to 3000 nM.

`Cc1csc(-c2cc(=O)n3cc(N4CCN[C@@H](C)C4)ccc3n2)n1` [compound 162, 7-[(3S)-3-methylpiperazin-1-yl]-2-(4-methyl-1,3-thiazol-2-yl)-4H-pyrido[1,2-a]pyrimidin-4-one] returned an IC50 of 3000 to 33000 nM.

`Cc1csc(-c2cc(=O)n3cc(N4CCNCC4)ccc3n2)n1` [compound 163, 2-(4-methyl-1,3-thiazol-2-yl)-7-(piperazin-1-yl)-4H-pyrido[1,2-a]pyrimidin-4-one] showed a half-inhibitory concentration (IC50) of 3000 to 33000 nM.

As for `Cc1cn2nc(-c3cc(=O)n4cc(N5CCN(C)CC5)ccc4n3)cc2c(C)n1` [compound 170, 2-(4,6-dimethylpyrazolo[1,5-a]pyrazin-2-yl)-7-(4-methylpiperazin-1-yl)-4H-pyrido[1,2-a]pyrimidin-4-one], the 50% inhibitory concentration (IC50) is 3000 to 33000 nM.

`Cc1cn(-c2cc(=O)n3cc(N4CCNCC4)ccc3n2)cn1` [compound 179, 2-(4-methyl-1H-imidazol-1-yl)-7-(piperazin-1-yl)-4H-pyrido[1,2-a]pyrimidin-4-one] showed an IC50 of 3000 to 33000 nM.

`C[C@H]1CN(c2ccc3nc(-c4cnn(C)c4)cc(=O)n3c2)CCN1` [compound 191, 7-[(3S)-3-methylpiperazin-1-yl]-2-(1-methyl-1H-pyrazol-4-yl)-4H-pyrido[1,2-a]pyrimidin-4-one] displayed a half-maximal inhibitory concentration (IC50) of 3000 to 33000 nM.

With `Cn1cc(-c2cc(=O)n3cc(N4CCNCC4)ccc3n2)cn1` [compound 192, 2-(1-methyl-1H-pyrazol-4-yl)-7-(piperazin-1-yl)-4H-pyrido[1,2-a]pyrimidin-4-one], the IC50 was in the range of 3000 to 33000 nM.

`Cc1nc2ccc(-c3cc(=O)n4cc(N5CCNC(C)(C)C5)ccc4n3)cc2o1` [compound 194, 7-(3,3-dimethylpiperazin-1-yl)-2-(2-methyl-1,3-benzoxazol-6-yl)-4H-pyrido[1,2-a]pyrimidin-4-one] showed an IC50 of 3000 to 33000 nM.
